Assay results taken from paper PMC9861180, “Nintedanib-αVβ6 Integrin Ligand Conjugates Reduce TGFβ-Induced EMT in Human Non-Small Cell Lung Cancer” (International Journal of Molecular Sciences, 2023).
pIC50: −log10 of the molar value. “Also recorded” adds a separate entry of the source.

Tests used:
K562 cells = test: Cell internalization by flow cytometry, αvβ6-negative K562; format: cell-based, human; settings: 5 µM
Description: In these cells, 74% of cells were positive after exposure to compound 1, whilst after exposure to compounds 2 and 3, positive cells ranged between 43.8 and 49% (Figure 4A). […] In addition, we investigated the internalization in αvβ6-negative K562 cells. […] Finally, two other αvβ6 integrin-expressing cell lines were used to evaluate the internalization of these compounds, namely the human melanoma cells SSM2c (Figure S4B) and the L929 murine fibroblasts (Figure S5B).
Briefly, A549 cells were seeded in standard medium (2 × 10^6 cells/100 mm Petri dishes, Sarstedt), and after adhesion, cells were grown in the presence or in the absence of TGFβ (10 ng/mL) for 48 h. […] After 24 h, cells were gently detached using Accutase (ECB3056D, Euroclone, Pero, Milano, Italy) or trypsin and the fluorescence, associated with different cell populations, was evaluated using the BV480 channel of the FACSCanto BD instrument (using 405 nm laser). Untreated cells were used as the negative control. The same procedure was applied to evaluate the internalization in K562, SSM2c, and L929 cells.
3. Expression of αvβ6 integrin receptor in K562 human erythroleukemic cells and internalization of conjugated compounds or nintedanib
Figure S3. Expression of αvβ6 integrin receptor in K562 human erythroleukemia cells (A). […]
assessed by flow cytometry measurements at 5 µM concentration. […]
as assessed by flow cytometry. […]

TGFβ-treated A549 cells [1] = test: cells; format: cell-based, human
Description: A549 cell viability was assessed using MTT (3-(4,5-dimethylthiazol-2-yl)-2,5-diphenyltetrazolium bromide) tetrazolium reduction assay (M5655, Sigma Aldrich, Milan, Italy), as described in [58]. Briefly, A549 cells were treated for 48 h in complete medium with TGFβ (10 ng/mL). Next, cells (2.5 × 10^3) were plated into 96-multiwell plates in 100 µL of complete medium. After adhesion, the compounds were added to the medium at different concentrations. After 24 h exposure, the medium was replaced with 100 µL MTT reagent in each well, and plates were incubated at 37 °C. After 2 h, MTT was removed, and the blue MTT–formazan product was solubilized with dimethyl sulfoxide (DMSO, Sigma Aldrich). The absorbance of the formazan solution was read at 595 nm using the microplate reader (Bio-Rad, Milan, Italy). Inhibition of cell proliferation was calculated by the IC50 calculator (AAT Bioquest, Inc., Pleasanton, CA, USA, https://www.aatbio.com/ (accessed on 1 July 2022)).

[2] = tested on: tumor spheroids of TGFβ-treated A549 cells and murine L929 fibroblasts; test: Tumor spheroid 2D flat surface migration and growth; format: cell-based, human; settings: 5 µM, fibronectin-coated flat surface
Description: Heterogeneous spheroids of tumor cells and fibroblasts were also used to evaluate the ability of the compounds to inhibit 2D flat surface migration and growth once the spheroids were allowed to attach to a suitable surface (Figure 8).
Hanging drop tumor spheroids were allowed to spread on a 2D fibronectin-coated flat surface. […] Data are representative of three independent experiments (n = 6) and expressed as means ± SEM. * p < 0.05 vs. untreated spheroids.
A549 cells, exposed for 48 h to TGFβ treatment, were mixed in a 1:1 ratio with murine L929 fibroblast (40,000/mL) in order to obtain 3D multicellular tumor spheroids (MCTS) resembling cellular heterogenicity of the neoplastic lesion. […] After one week, multicellular tumor spheroids were completely formed. Tumor spheroids were next used in different experimental procedures. We evaluated 2D flat surface inhibition of migration and growth, and the inhibition of 3D growth. For 2D flat surface migration and growth inhibition assays, the spheroids were placed on regular culture dishes and allowed to spread and grow in complete medium containing different compounds at 5 µM concentration. The areas of cell spreading were used as parameters for migration (red lines), while the areas of the spheroid core were used as parameters for 2D growth (yellow lines). For 3D growth inhibition, spheroids were placed on 2% agarose coated dishes in complete medium containing the different treatments at 5 µM concentration. Spheroid areas were analysed and compared to time 0 and used to evaluate the inhibition of 3D growth (yellow lines). Images of all spheroids were taken daily using the EVOS XL Core Imaging System with a 10x objective (Thermofisher Scientific, Waltham, MA, USA ). All images were analysed using the open-source software ImageJ (1.52a, National Institutes of Health, Bethesda, MD, USA).

E-cadherin = E-cadherin expression, Western blot; format: cell-based, human; settings: TGFβ-treated A549 cells, 5 μM, 24 h
Description: Left panel, representative Western blot of E-cadherin protein expression.
Western blot analysis was performed on whole-cell lysates of A549 cells, exposed for 48 h to TGFβ treatment and subsequently exposed to 5 µM concentrations of different compounds. After 24 h incubation, media were rapidly removed and cell monolayers were lysed as previously described in RIPA lysis buffer, with the addition of proteinase inhibitor cocktail (04693124001 Roche Merk Life Science S.r.l., Milano, Italy) for 30 min in ice [35]. Protein content was quantified, and forty-fifty micrograms of total proteins were separated on Bolt® Bis-Tris Plus gels 4–12% (Life Technologies, Monza, Italy). Fractionated proteins were transferred from the gel to a PVDF nitrocellulose membrane using iBlot 2 system (Life Technologies, Monza, Italy). Membranes were blocked for 5 min at room temperature, with EveryBlot Biorad blocking buffer (Life Technologies, Monza, Italy). Subsequently, the membranes were probed at 4 °C overnight with appropriate primary antibodies diluted in a solution of 1:1 Odyssey blocking buffer/T-PBS buffer, washed four times with PBS-Tween 0.1% solution, and probed with the secondary IRDye antibodies according to manufacturering instructions. The protein bands were analyzed by the Odyssey Infrared Imaging System (Lycor Bioscience) using software for protein quantification. […]

TGFβ-treated A549 cells [3] = test: F-actin cytoskeleton by confocal analysis (rhodamine-phalloidin); format: cell-based, human; settings: 5 μM, 24 h
Description: After incubation, cells were fixed and processed for fluorescence confocal imaging. The cell cytoskeleton was stained with rhodamine-conjugated phalloidin. Image dimensions: 180 × 180 μm, scale bar 50 μm. Experiments were performed at least three times. (C) Quantification of disassembled cytoskeleton expressed as the percentage of cells with point-like fluorescence signals/total cells per field. Data are representative of three independent experiments. * p < 0.05, and ** p < 0.001 vs. TGFβ treated cells.
A549 cells, exposed for 48 h to TGFβ treatment, were grown on fibronectin-coated (10 µg/mL) (sc-29011 SantaCruz, D.B.A., Milano Italy) glass coverslips in 6-well plates for 2 h, after which adherent cells were exposed to the different treatments, in the absence of FCS, for 24h. After incubation, the culture medium was removed, cells were washed with PBS, and fixed 30 min at 4 °C with 3.7% paraformaldehyde. Cells were permeabilized for 15 min with PBS 0.1% Tryton X-100 at room temperature, and then incubated 1 h at room temperature with blocking buffer (0.1% Tryton X-100 and 5.5% horse serum PBS). […] A single composite image was obtained by superimposition of 20 optical sections for each sample analyzed.

[4] = tested on: tumor spheroids of TGFβ-treated A549 cells and murine L929 fibroblasts; test: Inhibition of 3D tumor spheroid growth; format: cell-based, human; settings: 5 µM, 72 h, vs untreated spheroids
Description: Heterogeneous spheroids of tumor cells and fibroblasts were generated using the hanging drop technique to mimic the complex three-dimensional environment of tumor tissues. […] Next, the fluorescence intensities associated with each cell population were analyzed as previously described.
Hanging drop tumor spheroids were prepared starting from 1:1 mixed cell population (1000 cells/25μL) of TGF𝛽-treated A549 cells and murine L929 fibroblasts. […] (C) Quantitative analysis of inhibition of 3D growth and (D) 3D spheroid internalization of the compounds after 72 h exposure. Data are representative of three independent experiments (n = 6) and expressed as means ± SEM. * p < 0.05 vs. untreated spheroids.
A549 cells, exposed for 48 h to TGFβ treatment, were mixed in a 1:1 ratio with murine L929 fibroblast (40,000/mL) in order to obtain 3D multicellular tumor spheroids (MCTS) resembling cellular heterogenicity of the neoplastic lesion. […] After one week, multicellular tumor spheroids were completely formed. Tumor spheroids were next used in different experimental procedures. […] For 3D growth inhibition, spheroids were placed on 2% agarose coated dishes in complete medium containing the different treatments at 5 µM concentration. Spheroid areas were analysed and compared to time 0 and used to evaluate the inhibition of 3D growth (yellow lines). Images of all spheroids were taken daily using the EVOS XL Core Imaging System with a 10x objective (Thermofisher Scientific, Waltham, MA, USA ). All images were analysed using the open-source software ImageJ (1.52a, National Institutes of Health, Bethesda, MD, USA).

TGFβ-treated A549 cells [5] = test: Invasion assay through fibronectin-coated filters; format: cell-based; settings: Homo sapiens, 24 h, read-out: migration inhibition (invasiveness) with respect to control
Description: The first assay envisaged the evaluation of cellular invasiveness of TGFβ-treated A549 cells by measuring the capacity of cells to migrate through fibronectin-coated filters.
Cells were allowed to migrate towards fibronectin-coated filters (10 μg/μL). Right panel, quantification of invasiveness. Data are percentages of migrated cells compared to untreated cells and expressed as mean value ± SEM of at least three independent experiments. * p < 0.05 and ** p < 0.001 vs. untreated cells. […] Experiments were performed at least three times.
Invasiveness of A549 cells was determined in vitro on fibronectin-precoated polycarbonate inserts (Sarstedt 83.3932.800, 8µm pore size, 0.3 cm^2 growth surface). Briefly, 50 µL of 10 μg/mL of fibronectin solution were seeded on each insert and allowed to dry in sterile conditions (1.6 µg/cm^2). A549 human lung carcinoma cells were grown in the presence of TGFβ for 48 h. After incubation, 3.5 × 10^4 cells were exposed to the different compounds, in serum-free medium (at 5 µM concentration), seeded in the upper compartment of the insert, and were free to perform in the absence of any chemoattractant. Inserts were incubated for 24 h at 37 °C in 10% CO2 in air. […] Photographs of randomly chosen fields were taken, and migrated cells were counted in 4 field/photograph.

[6] = tested on: α-smooth muscle actin (α-SMA); test: α-smooth muscle actin protein expression, Western blot; format: cell-based, human; settings: TGFβ-treated A549 cells, 5 μM, 24 h
Description: Data are expressed as means ± SEM of fold increment compared to untreated cells normalized to α-tubulin.
Western blot analysis was performed on whole-cell lysates of A549 cells, exposed for 48 h to TGFβ treatment and subsequently exposed to 5 µM concentrations of different compounds. After 24 h incubation, media were rapidly removed and cell monolayers were lysed as previously described in RIPA lysis buffer, with the addition of proteinase inhibitor cocktail (04693124001 Roche Merk Life Science S.r.l., Milano, Italy) for 30 min in ice [35]. Protein content was quantified, and forty-fifty micrograms of total proteins were separated on Bolt® Bis-Tris Plus gels 4–12% (Life Technologies, Monza, Italy). Fractionated proteins were transferred from the gel to a PVDF nitrocellulose membrane using iBlot 2 system (Life Technologies, Monza, Italy). Membranes were blocked for 5 min at room temperature, with EveryBlot Biorad blocking buffer (Life Technologies, Monza, Italy). […] The protein bands were analyzed by the Odyssey Infrared Imaging System (Lycor Bioscience) using software for protein quantification. […]

TGFβ-treated A549 cells [7] = test: Clonogenic assay; format: cell-based, human; settings: sorted fluorescence-positive TGFβ-treated A549 cells after 5 μM 24 h; 2 weeks growth
Description: (A) After incubation, cells were sorted (BDMelody) and isolated cells from the selected population (indicated as P4) were seeded at low density (1000 cells/6 well petri dishes). (B) Number of colonies obtained after 2 weeks growth in standard media. (C) Quantification of colonies.
A549 lung adenocarcinoma cells were grown in the presence of TGFβ for 48 h. […] At the end of the incubation, cells were sorted using a fluorescence activated cell sorter (Melody, Becton Dickinson, Bioscience, Eysins, Switzerland). […] Activation of the labelled cells was provided by the violet laser (ex = 405 nm) while sorting of the activated cells was performed by their emitted wavelength at 480 nm (detection filter 450/50, using the BV480 channel). Isolated cells (1 × 10^3) were seeded in a FN-coated 6 well dishes. These isolated cells were cultured for 2 weeks. The medium was changed every 4 days until the emergence of colonies. The colonies were fixed and stained with Diff-Quick solution.

## COC(=O)c1ccc2c(c1)NC(=O)/C2=C(\Nc1ccc(N(C)C(=O)CN2CCN(C)CC2)cc1)c1ccccc1 [nintedanib, Nintedanib]
K562 cells
  fluorescence-positive cells (compound internalization): 95–100%
TGFβ-treated A549 cells [1]; 0.5-50 μM, 24 h (Figure S8)
  inhibition of cell proliferation (in words): concentration-dependent inhibition
TGFβ-treated A549 cells [1]; Homo sapiens, A549, 24 h, read-out: IC50, inhibition of cell proliferation (MTT)
  pIC50: 5.12
TGFβ-treated A549 cells [1]; TGFβ-treated A549 cells, concentrations >10 μM
  inhibition of cell proliferation (in words): almost completely inhibited
[2]
  2D flat surface migration of tumor spheroids: significantly impaired; also recorded: strong inhibition
  2D growth of tumor spheroids (spheroid core): significantly impaired
E-cadherin
  E-cadherin expression: enhanced
TGFβ-treated A549 cells [3]
  F-actin bundle disassembly: more significant reduction in the assembly of F-actin filaments
[4]
  inhibition of 3D spheroid growth: inhibited significantly
TGFβ-treated A549 cells [5]
  inhibition at 5 µM: 80%
[6]
  α-SMA protein expression: reduced by half
TGFβ-treated A549 cells [7]
  reduction of colony formation compared to untreated cells: 50%
